The target of assay [1] is T1, BRD4 bromo domain 1 [BRD4(1)] (Homo sapiens, UniProt O60885).
T1 construct: N-terminally His6-tagged BRD4(1) (amino acids 67-152); made in house; host or cells: E. coli
Nature of the assay: BRD4(1)/acetylated peptide H4 binding assay (TR-FRET). The following applies: inhibition of interaction between His6-tagged BRD4(1) (amino acids 67-152) and acetylated histone H4 peptide. An excerpt: (§1) Protein-Protein Interaction Assay: BRD4/Acetylated Peptide H4 Binding Assay
1. Assay Description for BRD4 Bromo Domain 1 [BRD4(1)]
To assess the BRD4(1) binding strength of the substances described in this application, the ability thereof to inhibit the interaction between BRD4(1) and acetylated histone H4 in a dose-dependent manner was quantified.
(§2) For this purpose, a time-resolved fluorescence resonance energy transfer (TR-FRET) assay was used, which measures the binding between N-terminally His6-tagged BRD4(1) (amino acids 67-152) and a synthetic acetylated histone H4 (Ac-H4) peptide with sequence GRGK(Ac)GGK(Ac)GLGK(Ac)GGAK(Ac)RHGSGSK-biotin. The recombinant BRD4(1) protein produced in-house according to Filippakopoulos et al., Cell, 2012, 149:214-231 was expressed in E. coli and purified by means of (Ni-NTA) affinity and (Sephadex G-75) size exclusion chromatography. The Ac-H4 peptide can be purchased, for example, from Biosyntan (Berlin, Germany).
(§3) In the assay, typically 11 different concentrations of each substance (0.1 nM, 0.33 nM, 1.1 nM, 3.8 nM, 13 nM, 44 nM, 0.15 μM, 0.51 μM, 1.7 μM, 5.9 μM and 20 μM) were analysed as duplicates on the same microtitre plate. For this purpose, 100-fold concentrated solutions in DMSO were prepared by serial dilutions (1:3.4) of a 2 mM stock solution into a clear, 384-well microtitre plate (Greiner Bio-One, Frickenhausen, Germany). From this, 50 nl were transferred into a black test plate (Greiner Bio-One, Frickenhausen, Germany). The test was started by the addition of 2 μl of a 2.5-fold concentrated BRD4(1) solution (final concentration typically 10 nM in the 5 μl of reaction volume) in aqueous assay buffer [50 mM HEPES pH 7.5, 50 mM sodium chloride (NaCl), 0.25 mM CHAPS and 0.05% serum albumin (BSA)] to the substances in the test plate. This was followed by a 10-minute incubation step at 22° C. for the pre-equilibration of putative complexes between BRD4(1) and the substances.
(§4) The mixture was then incubated in the dark at 22° C. for one hour and then at 4° C. for at least 3 hours and for no longer than overnight. The formation of BRD4(1)/Ac-H4 complexes was determined by the measurement of the resonance energy transfer from the streptavidin-Eu cryptate to the anti-6His-XL665 antibody present in the reaction. For this purpose, the fluorescence emission was measured at 620 nm and 665 nm after excitation at 330-350 nm in a TR-FRET measuring instrument, for example a Rubystar or Pherastar (both from BMG Lab Technologies, Offenburg, Germany) or a Viewlux (Perkin-Elmer). The ratio of the emissions at 665 nm and at 622 nm was taken as an indicator of the amount of BRD4(1)/Ac-H4 complexes formed.
The data (ratios) obtained were normalized, with 0% inhibition corresponding to the mean from the measurements for a set of controls (typically 32 data points) in which all the reagents were present. In these, in place of test substances, 50 nl of DMSO (100%) were used. Inhibition of 100% corresponded to the mean from the measurements for a set of controls (typically 32 data points) in which all the reagents except BRD4(1) were present. The IC50 was determined by regression analysis based on a 4-parameter equation (minimum, maximum, IC50, Hill; Y=max+(min−max)/(1+(X/IC50)Hill).
In general terms: In TR-FRET formats the signal depends on donor and acceptor labels being close together.

The target in assay [2] is T2, BRD4 bromo domain 2 [BRD4(2)] (Homo sapiens, UniProt O60885).
T2 construct: N-terminally His6-tagged BRD4(2) (amino acids 357-445); made in house; host or cells: E. coli
Nature of the assay: BRD4(2)/acetylated peptide H4 binding assay (TR-FRET). The following applies: inhibition of interaction between His6-tagged BRD4(2) (amino acids 357-445) and acetylated histone H4 peptide.
Source text: as §1
2. Assay Description for BRD4 Bromo Domain 2 [BRD4(2)]
To assess the BRD4(2) binding strength of the substances described in this application, the ability thereof to inhibit the interaction between BRD4(2) and acetylated histone H4 in a dose-dependent manner was quantified.
as §2, with “BRD4(2)” for “BRD4(1)”, “357-445)” for “67-152)”, “SGRGK(Ac)GGK(Ac)GLGK(Ac)GGAK(Ac)RHRKVLRDNGSGSK-biotin.” for “GRGK(Ac)GGK(Ac)GLGK(Ac)GGAK(Ac)RHGSGSK-biotin.”
as §3, with “concentrated BRD4(2)” for “concentrated BRD4(1)”, “typically 100” for “typically 10”, “chloride (NaCl); 50 mM potassium fluoride (KF);” for “chloride (NaCl),”, “between BRD4(2)” for “between BRD4(1)”
as §4, with “BRD4(2)/Ac-H4” for “BRD4(1)/Ac-H4”, “chelate” for “cryptate”
The data (ratios) obtained were normalized, with 0% inhibition corresponding to the mean from the measurements for a set of controls (typically 32 data points) in which all the reagents were present. In these, in place of test substances, 50 nl of DMSO (100%) were used. Inhibition of 100% corresponded to the mean from the measurements for a set of controls (typically 32 data points) in which all the reagents except BRD4(2) were present. The IC50 was determined by regression analysis based on a 4-parameter equation (minimum, maximum, IC50, Hill; Y=max+(min−max)/(1+(X/IC50)Hill).

Structures are written as SMILES.

As a reminder, the IC50 is the midpoint of a concentration-inhibition curve. With `COc1cc(C(=O)N2CC3(CCS3(=O)=O)C2)ccc1Nc1ccc2c(n1)N(C1CCCCCC1)[C@H](C)C(=O)N2C` [Example 84, (3R)-4-Cycloheptyl-6-({4-[(1,1-dioxido-1-thia-6-azaspiro[3.3]hept-6-yl)carbonyl]-2-methoxyphenyl}amino)-1,3-dimethyl-3,4-dihydropyrido[2,3-b]pyrazin-2(1H)-one], the IC50 in assay [1] was found to be 448 nM; in assay [2], 165 nM.
For `Cc1cc(C(=O)N2CCN(C)CC2)ccc1Nc1ccc2c(n1)N(C1CCOCC1)[C@H](C)C(=O)N2C` [Example 36, (3R)-1,3-Dimethyl-6-({2-methyl-4-[(4-methylpiperazin-1-yl)carbonyl]phenyl}amino)-4-(tetrahydro-2H-pyran-4-yl)-3,4-dihydropyrido[2,3-b]pyrazin-2(1H)-one] the same measures were 257 nM and 245 nM.
For `CC(C)N1CCN(C(=O)c2ccc(Nc3ccc4c(n3)N(C3CCCCC3)[C@H](C)C(=O)N4C)cc2)CC1` [Example 31, (3R)-4-Cyclohexyl-1,3-dimethyl-6-[(4-{[4-(propan-2-yl)piperazin-1-yl]carbonyl}phenyl)amino]-3,4-dihydropyrido[2,3-b]pyrazin-2(1H)-one] the same measures were 241 nM and 108 nM.
For `COc1cc(C(=O)NC2CCC(O)CC2)ccc1Nc1ccc2c(n1)N(C(C)C)[C@H](C)C(=O)N2C` (stereo partly drawn) [Example 97, 4-{[(3R)-1,3-Dimethyl-2-oxo-4-(propan-2-yl)-1,2,3,4-tetrahydropyrido[2,3-b]pyrazin-6-yl]amino}-N-(4-hydroxycyclohexyl)-3-methoxybenzamide] the same measures were 261 nM and 117 nM.
As to `C[C@@H]1C(=O)N(C)c2ccc(Nc3ccc(C(=O)N4CC5(CCS5(=O)=O)C4)cc3)nc2N1C1CCCCCC1` [Example 33, (3R)-4-Cycloheptyl-6-({4-[(1,1-dioxido-1-thia-6-azaspiro[3.3]hept-6-yl)carbonyl]phenyl}amino)-1,3-dimethyl-3,4-dihydropyrido[2,3-b]pyrazin-2(1H)-one], the IC50 came to 329 nM in assay [1] and 80 nM in assay [2].
For `C[C@@H]1C(=O)N(C)c2ccc(Nc3ccc(C(=O)N4CCN(C)CC4)cc3)nc2N1C1CCOCC1` [Example 56, (3R)-1,3-Dimethyl-6-({4-[(4-methylpiperazin-1-yl)carbonyl]phenyl}amino)-4-(tetrahydro-2H-pyran-4-yl)-3,4-dihydropyrido[2,3-b]pyrazin-2(1H)-one] the same measures were 139 nM and 242 nM.
With `COc1cc(C(=O)NC2CN(C)C2)ccc1Nc1ccc2c(n1)N(C1CCCCCC1)[C@H](C)C(=O)N2C` [Example 87, 4-{[(3R)-4-Cycloheptyl-1,3-dimethyl-2-oxo-1,2,3,4-tetrahydropyrido[2,3-b]pyrazin-6-yl]amino}-3-methoxy-N-(1-methylazetidin-3-yl)benzamide], the IC50 in assay [1] is 216 nM; in assay [2], 75 nM.
`COc1cc(C(=O)N2CCN(C3CC3)CC2)ccc1Nc1ccc2c(n1)N(C1CCOCC1)[C@H](C)C(=O)N2C` [Example 65, (3R)-6-({4-[(4-Cyclopropylpiperazin-1-yl)carbonyl]-2-methoxyphenyl}amino)-1,3-dimethyl-4-(tetrahydro-2H-pyran-4-yl)-3,4-dihydropyrido[2,3-b]pyrazin-2(1H)-one]: the IC50 came out at 234 nM in assay [1] and 120 nM in assay [2].
For `COCCN1c2nc(Nc3ccc(C(=O)NC4CCN(C)CC4)cc3)ccc2N(C)C(=O)C1C` (stereo not drawn) [Example 104, 4-{[4-(2-Methoxyethyl)-1,3-dimethyl-2-oxo-1,2,3,4-tetrahydropyrido[2,3-b]pyrazin-6-yl]amino}-N-(1-methylpiperidin-4-yl)benzamide] the same measures were 621 nM and 217 nM.
For `COc1cc(C(=O)N2CCN(C(C)C)CC2)ccc1Nc1ccc2c(n1)N(C1CCCCC1)[C@H](C)C(=O)N2C` [Example 28, (3R)-4-Cyclohexyl-6-[(2-methoxy-4-{[4-(propan-2-yl)piperazin-1-yl]carbonyl}phenyl)amino]-1,3-dimethyl-3,4-dihydropyrido[2,3-b]pyrazin-2(1H)-one] the same measures were 195 nM and 116 nM.
For `COc1cc(C(=O)N2CC3(COC3)C2)ccc1Nc1ccc2c(n1)N(C1CCCCCC1)[C@H](C)C(=O)N2C` [Example 32, (3R)-4-Cycloheptyl-6-{[2-methoxy-4-(2-oxa-6-azaspiro[3.3]hept-6-ylcarbonyl)phenyl]amino}-1,3-dimethyl-3,4-dihydropyrido[2,3-b]pyrazin-2(1H)-one] the same measures were 376 nM and 77 nM.
For `C[C@@H]1C(=O)N(C)c2ccc(Nc3ccc(C(=O)N4CC5(COC5)C4)cc3)nc2N1C1CCCCCC1` [Example 93, (3R)-4-Cycloheptyl-1,3-dimethyl-6-{[4-(2-oxa-6-azaspiro[3.3]hept-6-ylcarbonyl)phenyl]amino}-3,4-dihydropyrido[2,3-b]pyrazin-2(1H)-one], the IC50 is 317 nM in assay [1] and 90 nM in assay [2].

Source of the values: patent US20160193206A1, “BET-PROTEIN-INHIBITING DIHYDROPYRIDOPYRAZINONES” (BAYER PHARMA AKTIENGESELLSCHAFT, priority 2012, published 2016).
